Laboratory results published in BindingDB's records for doi:10.1021/jm00117a005 (Sterling-Winthrop Research Institute, 1988).

Target: DNA gyrase (Escherichia coli)
Assay: Gyrase inhibitory activity against Escherichia coli

- IC50: 2670 nM
SMILES: CN1CCN(c2c(F)cc3c(=O)c(C(=O)O)cn4c3c2OCC42CC2)CC1
